Reference: ChEMBL document CHEMBL1134716, “Synthesis and evaluation of GGPP geometric isomers: divergent substrate specificities of FTase and GGTase I” (Bioorg Med Chem Lett, 2001)

Tests used:
[1] = biological target: Protein farnesyltransferase (Homo sapiens) (UniProt P49354+P49356); test: Activity as substrate for recombinant mammalian Farnesyltransferase expressed in baculovirus; activity expressed as Vmax relative to the Vmax of E,E-FPP
[2] = tested on: CC(C)=CCC/C(C)=C/CC/C(C)=C\CC/C(C)=C/COP(=O)(O)OP(=O)(O)O; test: (§1) Kinetic constant for recombinant mammalian Farnesyltransferase expressed in baculovirus by fluorescence assay
[3] = tested on: CC(C)=CCC/C(C)=C/CC/C(C)=C/CC/C(C)=C\COP(=O)(O)OP(=O)(O)O; test: as §1
[4] = tested on: CC(C)=CCC/C(C)=C\CC/C(C)=C/COP(=O)(O)OP(=O)(O)O; test: as §1
[5] = tested on: CC(C)=CCC/C(C)=C/CC/C(C)=C\COP(=O)(O)OP(=O)(O)O; test: as §1

Krel [1] | Compound | further results
0.4 | CC(C)=CCC/C(C)=C/CC/C(C)=C\CC/C(C)=C/COP(=O)(O)OP(=O)(O)O | –
0.47 | CC(C)=CCC/C(C)=C/CC/C(C)=C\COP(=O)(O)OP(=O)(O)O | –
0.41 | CC(C)=CCC/C(C)=C\CC/C(C)=C/COP(=O)(O)OP(=O)(O)O | –

The remaining lines, values behind:

Compound | Krel [1] | further results
CC(C)=CCC/C(C)=C/CC/C(C)=C/CC/C(C)=C\COP(=O)(O)OP(=O)(O)O | 0.67 | –
Protein farnesyltransferase (Homo sapiens) (from UniProt P49354+P49356) | – | Km [2]: 0.481 µM; Km [3]: 0.021 µM; Km [4]: 0.136 µM; Km [5]: 0.225 µM
